Assay [1] relates to PC-12. Briefly: Neuritogenic activity in rat PC12 cells in serum free medium assessed as neurite outgrowth at 25 uM after 24 hrs by light microscopy. The class given is functional, cell-based.
For assay [2], the system named is PC-12. Put plainly: Neuritogenic activity in rat PC12 cells in serum free medium assessed as potentiation of NGF-induced neurite outgrowth at 25 uM after 24 hrs by light microscopy in presence of 20 ng/ml NGF. The class given is functional.
Assay [3] deals with PC-12. Put plainly: Neuritogenic activity in rat PC12 cells in serum free medium assessed as potentiation of NGF-induced neurite outgrowth at 25 uM after 24 hrs by light microscopy in presence of 20 ng/ml NGF relative to NGF. The class given is functional, cell-based.

Active and inactive are the calls of the source. No cut-off for these calls is given here.

Drawing on ChEMBL document CHEMBL1799959, “Cyathane diterpenes from Chinese mushroom Sarcodon scabrosus and their neurite outgrowth-promoting activity” (2011), this text covers Activity for seven compounds.

Turning to `C[C@@H](CO)C1=C2[C@H]3CC=C(C=O)CC(=O)[C@]3(C)CC[C@@]2(CO)CC1`, the outcome in assay [1] and in assay [2] was inactive.
Turning to `C[C@H](CO)C1=C2[C@H]3CC=C(C=O)CC(=O)[C@]3(C)CC[C@@]2(C)CC1` [SARCODONIN G], the result in assay [1] was inactive. Besides, the result in assay [3] was Active. Also, the Activity in assay [2] came out at 24.9%.
Take `C[C@@H](CO)C1=C2[C@H]3C[C@H](O)C(COC(=O)c4ccccc4)=C[C@H](O)[C@]3(C)CC[C@@]2(C)CC1`: the outcome in assay [1] and in assay [2] was inactive.
On to `CC(=O)OC[C@@H](C)C1=C2[C@H]3CC=C(C=O)CC(=O)[C@]3(C)CC[C@@]2(C)CC1`, for which the result in assay [1] and in assay [2] was inactive.
Turning to `C[C@H](CO)C1=C2C3=CC=C(C=O)C[C@H](O)[C@]3(C)CC[C@@]2(C)CC1` [SARCODONIN A], the result in assay [1] was inactive. Further, in assay [3], the outcome was Active. Moreover, in assay [2], the Activity was 20%.
Turning to `CC(C)C1=C2[C@H]3C[C@@H](OC(=O)c4ccccc4)C(COC(=O)c4ccccc4)=C[C@H](O)[C@]3(C)CC[C@@]2(C(=O)O)CC1`, the outcome in assay [1] and in assay [2] was inactive.
Turning to `C[C@@H](CO)C1=C2[C@H]3C[C@H](O)C(COC(=O)c4ccccc4)=C[C@H](O)[C@]3(C)CC[C@@]2(CO)CC1`, the outcome in assay [1] and in assay [2] was inactive.
